This note sets out measurements from ChEMBL document CHEMBL1134730, “Synthesis and biological evaluation of didemnin photoaffinity analogues” (Bioorg Med Chem Lett, 2001).

By GI50 is commonly meant the concentration that inhibits growth by half. High values mean lower sensitivity of the cells, low ones greater sensitivity of the cells. The LC50 is the concentration that kills 50% of the test population. Lower therefore signals greater toxicity. One may read the TGI as the concentration at which net growth stops. Read a high TGI as lower sensitivity of the cells. In general, pIC50 refers to −log10 of the IC50, conventionally taken in molar units. Read a low pIC50 as a large IC50.

SMILES strings stand for the structures. pIC50: −log10 of the molar value. *1 amine or outer side, *2 acyl side, *3 side chain or, on linkers, in order; H or OH if unused. Where a SMILES comes first, the peptide text is derived from it. Bridges are numbered along the chain shown (N, C = ends). [ ]: non-standard residue; d: D form. The star is where a group is joined. ξ: configuration not given here. X1 = CC[C@H](C)[C@@H](N[*:1])[C@@H](O)CC(=O)O[C@H](C(=O)[C@H](C)C(=O)[*:2])C(C)C; Benzoyl(4-benzoyl) = O=C(c1ccccc1)c1ccc(C(=O)*)cc1; NMeY = CN[C@@H](Cc1ccc(O)cc1)C(=O)O; dNMeL = CN[C@H](CC(C)C)C(=O)O; Ahx = NCCCCCC(=O)O; ξP = O=C(O)C1CCCN1

What all share (format): functional
Assay [1] in a line: The compound was evaluated for growth inhibition in NCI-60 tumor cells. The following applies: Homo sapiens.
The nature of assay [2]: The compound was evaluated for toxicity in NCI-60 tumor cells. The following applies: Homo sapiens.
Assay [3] is described as follows: The compound was evaluated for total growth inhibition in NCI-60 tumor cells. The following applies: Homo sapiens.
Assay [4] in a line: The compound was evaluated for inhibition of protein biosynthesis.

`CC[C@H](C)[C@H]1NC(=O)[C@@H](NC(=O)[C@@H](CC(C)C)N(C)C(=O)CCCCCNC(=O)CCCCCNC(=O)c2ccc(C(=O)c3ccccc3)cc2)[C@@H](C)OC(=O)[C@H](Cc2ccc(OC)cc2)N(C)C(=O)C2CCCN2C(=O)[C@H](CC(C)C)NC(=O)[C@@H](C)C(=O)[C@H](C(C)C)OC(=O)C[C@@H]1O` (stereo partly specified) displayed a 50% growth inhibitory concentration (GI50) in assay [1] of 0.017 µM. The compound also returned an LC50 in assay [2] of 48 µM. The same compound came in with a concentration for total growth inhibition (TGI) in assay [3] of 5 µM. The pIC50 in assay [4] was 4.72.

Compound `CC[C@H](C)[C@H]1NC(=O)[C@@H](NC(=O)[C@@H](CC(C)C)N(C)C(=O)CCCCCNC(=O)c2ccc(C(=O)c3ccccc3)cc2)[C@@H](C)OC(=O)[C@H](Cc2ccc(OC)cc2)N(C)C(=O)C2CCCN2C(=O)[C@H](CC(C)C)NC(=O)[C@@H](C)C(=O)[C@H](C(C)C)OC(=O)C[C@@H]1O` (stereo partly specified) ({Benzoyl(4-benzoyl)-Ahx}-[dNMeL]T[X1]L[ξP][NMeY](Me); ester 2-C) gave a concentration for 50% growth inhibition (GI50) in assay [1] of 0.0043 µM. This compound came in with a median lethal concentration (LC50) in assay [2] of 19 µM. This compound showed a TGI in assay [3] of 21 µM. The compound also gave a pIC50 in assay [4] of 4.62.

Consider `CC[C@H](C)[C@H]1NC(=O)[C@@H](NC(=O)[C@@H](CC(C)C)N(C)C(=O)c2ccc(C(=O)c3ccccc3)cc2)[C@@H](C)OC(=O)[C@H](Cc2ccc(OC)cc2)N(C)C(=O)C2CCCN2C(=O)[C@H](CC(C)C)NC(=O)[C@@H](C)C(=O)[C@H](C(C)C)OC(=O)C[C@@H]1O` (stereo partly specified) ({Benzoyl(4-benzoyl)}-[dNMeL]T[X1]L[ξP][NMeY](Me); ester 2-C), for which, in assay [1], the concentration for 50% growth inhibition (GI50) came to 0.003 µM. The same compound showed an LC50 in assay [2] of 15 µM. Further, the concentration for total growth inhibition (TGI) in assay [3] is 0.35 µM. The pIC50 in assay [4] is 5.40.

In the case of `CC[C@H](C)[C@H]1NC(=O)[C@@H](NC(=O)[C@@H](CC(C)C)N(C)C(=O)CNC(=O)c2ccc(C(=O)c3ccccc3)cc2)[C@@H](C)OC(=O)[C@H](Cc2ccc(OC)cc2)N(C)C(=O)C2CCCN2C(=O)[C@H](CC(C)C)NC(=O)[C@@H](C)C(=O)[C@H](C(C)C)OC(=O)C[C@@H]1O` (stereo partly specified) ({Benzoyl(4-benzoyl)}-G[dNMeL]T[X1]L[ξP][NMeY](Me); ester 3-C), in assay [1], the GI50 was 0.013 µM. In assay [2], this compound displayed a 50% lethal concentration (LC50) of 23 µM. Further, total growth inhibition in assay [3] (TGI) required 2 µM. In assay [4], this compound had a pIC50 of 5.35.
